The values below come from patent US5455044A, “Method for treating neurological disorders” (priority 1993, dated 1995).

The structures appear in SMILES notation.

This data set can be described thus: Effect of concurrent oral dexamethasone administration on DTC 101 toxicity.

Regarding `C[C@@H]1C[C@H]2[C@@H]3CCC4=CC(=O)C=C[C@]4(C)[C@@]3(F)[C@@H](O)C[C@]2(C)[C@@]1(O)C(=O)CO` [dexamethasone], the “effect on toxicities associated with DTC 101” value (oral, 2 to 4 mg twice per day) is “major effect on blunting toxicities associated with DTC 101”. The “DTC 101 toxicity with concurrent oral dexamethasone” value (three patients, same dose of DTC 101 with and without dexamethasone) was “almost completely suppressed”.
